Laboratory results: patent publication US5559106A, “Heterocyclic compounds, their use and preparation” (Novo Nordisk A/S, priority 1993, dated 1996)

Tests used:
[1] = target: AMPA type receptors; experiment: 3H-AMPA Binding (Test 1), rat cerebral cortical membrane homogenate; conditions: 3H-AMPA 5 nM, rat cerebral cortical membranes, pH 7.1, 0° C., 30 min; read-out: TEST 1 IC50 (displacement of 50% of the specific binding of 3H-AMPA)
Procedure: (§1) The pharmacological properties of the compounds of the present invention can be illustrated by determining their capability for displacing radioactively labelled 2-amino-3-hydroxy-5-methyl-4-isoxazolepropionic acid (AMPA) from the AMPA type receptors.
The displacement activity of the compounds may be shown by determining the IC50 value which represents the concentration (μM) which causes a displacement of 50% of the specific binding of ^3 H-AMPA.
^3 H-AMPA Binding (Test 1)
500 μl of thawed rat cerebral cortical membrane homogenate in Tris-HCl (30 mM), CaCl2 (2.5 mM) and KSCN (100 mM) pH 7.1 were incubated at 0° C. for 30 min. with 25 μl ^3 H-AMPA (5 nM final concentration) and the test compound and buffer. Nonspecific binding was determined by incubation with L-glutamic acid (600 μM final concentration). The binding reaction was terminated by adding 5 ml of ice-cold buffer followed by filtration through Whatman GF/C glass fibre filters and 2×5 ml wash with ice-cold buffer. Bound radioactivity was measured by scintillation counting. IC50 was determined by Hill analysis of at least four concentrations of test compound.

[2] = system: quisqualic acid stimulated spreading depression in chicken retina; experiment: Spreading Depression (Test 2), quisqualate stimulated, chicken retina; assay type: cell-based; conditions: Gallus gallus, 0.25 h, quisqualate 1 μg/ml, 26° C., 15 min incubation with test compound, read-out: TEST 2 IC50 (50% maximal inhibition of quisqualic acid stimulated spreading depression)
Procedure: as §1
The antagonism is measured by determining the IC50 value which represents the concentration which produces a 50% maximal inhibition of quisqualic acid stimulated spreading depression in chicken retina.
Spreading Depression (Test 2)
Chicks (3-10 days old) were decapitated, the eyes enucleated and sectioned along the equatorial plane. […]
The eyes were initially incubated in normal P.S.S. for 15-30 min. and then transferred to P.S.S. containing quisqualate (1 μg/ml). […] The time taken for an S.D. to start in each eye was measured.
After a further 15 min. of incubation in normal P.S.S. the eyes were transferred to normal P.S.S. containing the test compound and incubated for 15 min. […] The time taken for an S.D. to start in each eye was measured again. The eyes were then placed back in normal P.S.S. and after 15 min. the time taken for S.D. to start was measured again, in order to assess the degree of recovery from any drug effects. […]

| SMILES | IC50 [1] [nM] | IC50 [2] [nM] |
| --- | --- | --- |
| O=c1[nH]c2cc(C(F)(F)F)ccc2n2c(CP(=O)(O)O)nnc12 [Example 20, 1-Phosphonomethyl-7-trifluoromethyl[1,2,4]triazolo[4,3-a]quinoxalin-4(5H)-one] | 260 | 400 |
| O=c1[nH]c2c3ccccc3ccc2n2c(CP(=O)(O)O)nnc12 [Example 30, 3-Phosphonomethylbenzo[f]-1,2,4-triazolo[4,3-a]quinoxalin-12(11H)-one] | 480 | 1400 |
